Assay results: patent publication US3983105A, “Penicillins” (Bayer Aktiengesellschaft, priority 1971, dated 1976)

How the values were obtained:
Format in all cases: cell-based
[1] = test system: Staphylococcus aureus; experiment: MIC, test tube serial dilution, Staphylococcus aureus
[2] = test system: Streptococcus faecalis; experiment: MIC, test tube serial dilution, Streptococcus faecalis
[3] = test system: Proteus vulgaris; experiment: MIC, test tube serial dilution, Proteus vulgaris
[4] = test system: Proteus morganii; experiment: MIC, test tube serial dilution, Proteus morganii
[5] = test system: Klebsiella-Aerobacter; experiment: MIC, test tube serial dilution, Klebsiella-Aerobacter
[6] = test system: Pseudomonas aeruginosa; experiment: MIC, test tube serial dilution, Pseudomonas aeruginosa
[7] = test system: Escherichia coli; experiment: MIC, test tube serial dilution, Escherichia coli
[8] = strain 1756 (BRL 1 756), 24 hours, 37°C

MIC ([1]; Table 3, strain 133) [U/ml]	MIC ([1]; Table 3, strain 1756E)	MIC ([2]; Table 3, ATCC 9790) [U/ml]	MIC ([3]; Table 3, strain 1017) [U/ml]	MIC ([4]; Table 3, strain 932) [U/ml]	MIC ([5]; Table 3, strain 63) [U/ml]	MIC ([5]; Table 3, strain K 10) [U/ml]	MIC ([6]; Table 3, strain F 41) [U/ml]	MIC ([6]; Table 3, strain Walter) [U/ml]	MIC ([7]; Table 3, strain 14) [U/ml]	MIC ([7]; Table 3, strain 183/58) [U/ml]	MIC ([7]; Table 3, strain A 261) [U/ml]	MIC ([7]; Table 3, strain C 165) [U/ml]	Compound	other results
4	≥ 256 U/ml	256	256	32	≥ 256	≥ 256	≥ 256	≥ 256	256	256	≥ 256	≥ 256	CC1(C)S[C@@H]2[C@H](NC(=O)C(NC(=O)N3CCN(S(C)(=O)=O)C3=O)c3c(Cl)cccc3Cl)C(=O)N2[C@H]1C(=O)O (stereo partly drawn) [Penicillin No. 5 (Table 3), Sodium D,L-α-[(3-methylsulphonyl-imidazolidin-2-on-1-yl)-carbonylamino]-2,6-dichloro-benzylpenicillin]	
< 1	64 U/ml	64	32	16	128	32	128	64	4	8	512	16	CC(=O)N1CCN(C(=O)NC(C(=O)N[C@@H]2C(=O)N3[C@@H]2SC(C)(C)[C@@H]3C(=O)O)c2ccc(Cl)cc2)C1=O (stereo partly drawn) [Penicillin No. 7 (Table 3), Sodium D,L-α-[(3-acetylimidazolidin-2-on-1-yl)-carbonyl-amino]-4-chlorobenzylpenicillin]	
< 1	64 U/ml	64	8	8	128	32	128	64	< 1	4	256	4	CC1(C)S[C@@H]2[C@H](NC(=O)C(NC(=O)N3CCN(S(C)(=O)=O)C3=O)c3ccc(Cl)cc3)C(=O)N2[C@H]1C(=O)O (stereo partly drawn) [Penicillin No. 2 (Table 3), Sodium D,L-α-[(3-methylsulphonyl-imidazolidin-2-on-1-yl)-carbonylamino]-4-chlorobenzylpenicillin]	
< 1	64 U/ml	16	8	32	32	32	64	32	4	8	> 256	8	COC(=O)N1CCN(C(=O)NC(C(=O)N[C@@H]2C(=O)N3[C@@H]2SC(C)(C)[C@@H]3C(=O)O)c2cccs2)C1=O (stereo partly drawn) [Penicillin No. 20 (Table 3), Sodium D,L-α-[(3-methoxycarbonyl-imidazolidin-2-on-1-yl)-carbonylamino]-α-thienyl(2)-methylpenicillin]	
4	256 U/ml	128	16	128	64	32	128	128	4	4	> 256	8	CCS(=O)(=O)N1CCN(C(=O)NC(C(=O)N[C@@H]2C(=O)N3[C@@H]2SC(C)(C)[C@@H]3C(=O)O)c2ccc(Cl)cc2)C1=O (stereo partly drawn) [Penicillin No. 13 (Table 3), Sodium α-[(3-ethylsulphonyl-imidazolidin-2-on-1-yl)-carbonylamino]-p-chlorobenzylpenicillin]	
2	128 U/ml	128	32	64	256	128	256	128	8	16	> 512	32	CC(=O)N1CCN(C(=O)N[C@H](C(=O)N[C@@H]2C(=O)N3[C@@H]2SC(C)(C)[C@@H]3C(=O)O)c2ccccc2)C1=O [Penicillin No. 6 (Table 3), Sodium L(+)-α-[(3-acetyl-imidazolidin-2-on-1-yl)-carbonylamino]-benzylpenicillin]	

The next lines start with the molecule.

Compound	MIC ([1]; Table 3, strain 133) [U/ml]	MIC ([1]; Table 3, strain 1756E)	MIC ([2]; Table 3, ATCC 9790) [U/ml]	MIC ([3]; Table 3, strain 1017) [U/ml]	MIC ([4]; Table 3, strain 932) [U/ml]	MIC ([5]; Table 3, strain 63) [U/ml]	MIC ([5]; Table 3, strain K 10) [U/ml]	MIC ([6]; Table 3, strain F 41) [U/ml]	MIC ([6]; Table 3, strain Walter) [U/ml]	MIC ([7]; Table 3, strain 14) [U/ml]	MIC ([7]; Table 3, strain 183/58) [U/ml]	MIC ([7]; Table 3, strain A 261) [U/ml]	MIC ([7]; Table 3, strain C 165) [U/ml]	other results
CN(C(=O)N[C@@H](C(=O)N[C@@H]1C(=O)N2[C@@H]1SC(C)(C)[C@@H]2C(=O)O)c1ccccc1)C(=O)N1CCCS1(=O)=O [Example 29, Sodium D(-)-α-{3-[N-(1,1-dioxo-isothiazolidin-2-yl)-carbonyl]-3-methyl}-ureido-benzylpenicillin]														MIC [1, 8]: 256 U/ml; MIC ([2]; ATCC 9790, 24 hours, 37°C): 16 U/ml; MIC ([3]; strain 1017, 24 hours, 37°C): 64 U/ml; MIC ([4]; unit assumed): 128 µg/mL; MIC ([5]; strain 63, 24 hours, 37°C): 64 U/ml; MIC ([5]; strain K 10, 24 hours, 37°C): 64 U/ml; MIC ([6]; strain Bonn, 24 hours, 37°C): 16 U/ml; MIC ([6]; strain Walter, 24 hours, 37°C): 16 U/ml; MIC ([7]; strain 183/58, 24 hours, 37°C): 32 U/ml; MIC ([7]; strain A 261, 24 hours, 37°C): > 256 U/ml; MIC ([7]; strain C 165, 24 hours, 37°C): 16 U/ml
CC1(C)S[C@@H]2[C@H](NC(=O)C(NC(=O)N3CCN(S(C)(=O)=O)C3=O)c3cccs3)C(=O)N2[C@H]1C(=O)O (stereo partly drawn) [Penicillin No. 3 (Table 3), Sodium D,L-α-[(3-methylsulphonyl-imidazolidin-2-on-1-yl)-carbonylamino]-α-thienyl-(2)-mthylpenicillin]	< 1	128 U/ml		4	16	256	16	64	64	< 1	4	256	4	MIC ([2]; unit assumed): 32 µg/mL
CC1(C)S[C@@H]2[C@H](NC(=O)[C@H](NC(=O)NC(=O)NS(C)(=O)=O)c3ccccc3)C(=O)N2[C@H]1C(=O)O [Example 31, Sodium D(-)-α-(5 -mesyl-biureido)-benzylpenicillin]														MIC [1, 8]: 64 U/ml; MIC ([2]; unit assumed): 32 µg/mL; MIC ([3]; strain 1017, 24 hours, 37°C): > 256 U/ml; MIC ([4]; strain 932, 24 hours, 37°C): 64 U/ml; MIC ([5]; strain 63, 24 hours, 37°C): > 256 U/ml; MIC ([5]; strain K 10, 24 hours, 37°C): > 256 U/ml; MIC ([6]; strain Bonn, 24 hours, 37°C): 256 U/ml; MIC ([6]; strain Walter, 24 hours, 37°C): 256 U/ml; MIC ([7]; strain 183/58, 24 hours, 37°C): 128 U/ml; MIC ([7]; strain A 261, 24 hours, 37°C): > 256 U/ml
CN(C)C(=O)N1CCN(C(=O)N[C@@H](C(=O)N[C@@H]2C(=O)N3[C@@H]2SC(C)(C)[C@@H]3C(=O)O)c2ccccc2)C1=O [Example 6, Sodium D(-)-α-[(3-dimethylaminocarbonyl-imidazolidin-2-on-1-yl)-carbonylamino]-benzylpenicillin]														MIC [1, 8]: 64 U/ml; MIC ([2]; ATCC 9790, 24 hours, 37°C): 32 U/ml; MIC ([3]; strain 1017, 24 hours, 37°C): 16 U/ml; MIC ([4]; strain 932, 24 hours, 37°C): 64 U/ml; MIC ([5]; strain 63, 24 hours, 37°C): 32 U/ml; MIC ([5]; strain K 10, 24 hours, 37°C): 16 U/ml; MIC ([6]; strain Bonn, 24 hours, 37°C): 32 U/ml; MIC ([6]; strain Walter, 24 hours, 37°C): 32 U/ml; MIC ([7]; strain 183/58, 24 hours, 37°C): 4 U/ml; MIC ([7]; strain A 261, 24 hours, 37°C): > 256 U/ml
COC(=O)N1CCN(C(=O)NC(C(=O)N[C@@H]2C(=O)N3[C@@H]2SC(C)(C)[C@@H]3C(=O)O)c2ccc(Cl)cc2)C1=O (stereo partly drawn) [Penicillin No. 19 (Table 3), Sodium D,L-α-[(3-methoxycarbonyl-imidazolidin-2-on-1-yl)-carbonylamino]-4-chlorobenzylpenicillin]		128 U/ml		32	4	4	32	64	64	4	16	> 256	8	MIC ([2]; unit assumed): 32 µg/mL
CCS(=O)(=O)N1CCN(C(=O)N[C@@H](C(=O)N[C@@H]2C(=O)N3[C@@H]2SC(C)(C)[C@@H]3C(=O)O)c2ccccc2)C1=O [Example 24, Sodium D(-)-α-[(3-ethanesulphonyl-imidazolidin-2-on-1-yl)-carbonylamino]-benzylpenicillin]														MIC [1, 8]: 32 U/ml; MIC ([2]; ATCC 9790, 24 hours, 37°C): 16 U/ml; MIC ([3]; unit assumed): 2 µg/mL; MIC ([4]; unit assumed): 2 µg/mL; MIC ([5]; in µg/mL (unit assumed)): 8; MIC ([6]; in µg/mL (unit assumed)): 32; MIC ([7]; strain 183/58, 24 hours, 37°C): < 1 U/ml; MIC ([7]; strain A 261, 24 hours, 37°C): 512 U/ml
CC(=O)N1CCN(C(=O)NC(C(=O)N[C@@H]2C(=O)N3[C@@H]2SC(C)(C)[C@@H]3C(=O)O)c2ccc(C)cc2)C1=O (stereo partly drawn) [Penicillin No. 8 (Table 3), Sodium D,L-α-[(3-acetyl-imidazolidin-2-on1-yl)-carbonylamino]-4-methyl-benzylpenicillin]		~ 64 U/ml	64		32	128	32	128	64	2	8	512	8	MIC ([3]; unit assumed): 16 µg/mL
CCS(=O)(=O)N1CCN(C(=O)N[C@@H](C(=O)N[C@@H]2C(=O)N3[C@@H]2SC(C)(C)[C@@H]3C(=O)O)c2ccccc2)C1=O [Penicillin No. 11 (Table 3), Sodium D(-)-α-[(3-ethylsulphonyl-imidazolidin-2-on-1-yl)-carbonylamino]-benzylpenicillin]	2	128 U/ml	64	4	16	16	16	64	64	< 1	2	512	4	
